Test results published in patent US8846951B2 (AbbVie Inc., priority 2009, dated 2014).
pEC50, pKi: −log10 of the molar value. Entries after “also recorded” stand apart in the source; their conditions may differ. Where two headings read alike, the source gives them in different places.

Columns and labels:
5HT2C receptors [1] = biological target: T1, 5HT2C receptors (Homo sapiens, UniProt P28335); assay: Human 5-HT2C functional high throughput screening assay in CHO-K1 cells (calcium flux); assay type: cell-based; design: expressed in transfected cells; host or cells: CHO-K1 cells; conditions: for Emax: CHO-K1, 5-HT2C, maximum functional response as percentage relative to the effect of serotonin; for pEC50: CHO-K1 cells, calcium flux
T1 sequence (P28335 33-458): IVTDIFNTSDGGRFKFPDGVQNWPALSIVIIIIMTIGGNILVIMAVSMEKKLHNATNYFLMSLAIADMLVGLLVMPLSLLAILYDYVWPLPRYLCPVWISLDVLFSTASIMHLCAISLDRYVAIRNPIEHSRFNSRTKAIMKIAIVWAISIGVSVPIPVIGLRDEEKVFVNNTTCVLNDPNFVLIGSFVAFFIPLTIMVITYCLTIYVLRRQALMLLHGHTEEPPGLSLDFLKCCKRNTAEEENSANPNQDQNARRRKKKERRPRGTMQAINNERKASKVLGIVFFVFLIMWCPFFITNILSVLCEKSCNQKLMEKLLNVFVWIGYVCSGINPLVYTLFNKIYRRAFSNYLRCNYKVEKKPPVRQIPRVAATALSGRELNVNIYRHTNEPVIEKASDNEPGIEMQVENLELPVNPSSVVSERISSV
Outline: (§1)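 Frozen CHO-K1 cells overexpressing the receptor were plated, serum-starved overnight, then loaded with Ca4 dye plus 2.5 mM probenecid for 60 min at room temperature. FLIPR fluorescence (ex 480/em 530 nm, 25 °C) after compound addition was normalized to serotonin; EC50 and Emax came from 4-parameter logistic fits.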

[2] = biological target: T2, human serotonin 5-HT2c receptor (Homo sapiens, UniProt P28335); assay: Human 5-HT2C receptor radioligand binding assay (agonist site, [125I]DOI); conditions: 5-HT2c agonist site; transfected CHO cell membranes; 0.2 nM [125I](±)DOI
T2 construct: expressed in transfected cells; host or cells: CHO cells (membrane homogenates)
T2 sequence (P28335 33-458): T1 sequence (P28335 33-458)
Description: (i) Human 5-HT2C Receptor Radioligand Binding Assay
Affinity of compounds for the agonist site of the […], receptor in transfected CHO cells was determined in a radioligand binding assay essentially as described by Bryant, H. U., et al., Life Sciences (1996) 59(15), 1259-1268.

5HT2C receptors [3] = biological target: T1, 5HT2C receptors; assay: Human 5-HT2C functional assay in 1321N1 cells (intracellular calcium, FLIPR); assay type: cell-based; design: expressed in transfected cells; host or cells: 1321N1 cells; conditions: 5-HT2c agonist activity, maximum calcium response
Outline: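 Intracellular calcium (Fluo-4, FLIPR peak response) was measured in stably transfected human 5-HT2C 1321N1 cells after overnight serum-free culture. Compounds were applied at final 10^−10 to 10^−5 M either alone or together with 10^−9 M serotonin. Half-maximal effect concentration was derived by four-parameter logistic fitting.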

[4] = test system: AMP- or PCP-induced hyperactivity; assay: Psychostimulant (AMP or PCP)-induced hyperlocomotion in mice; assay type: in vivo, mouse
From the text: (x) Assessment of Effects on Psychostimulant-Induced Hyperlocomotion in Mice
In both humans and experimental animals amphetamine (AMP) profoundly affects motor activity, sensorimotor function, sleep, attention, aggressive and sexual behaviors, learning and memory, operant behaviors, appetite and food intake. In addition, amphetamine induces psychotic reactions in normal individuals and exacerbates symptoms of schizophrenia in patients. In experimental animals several distinct behaviors are considered to be correlates of amphetamine psychosis. For example, amphetamine-induced hyperactivity in rodents is believed to model the psychotic symptoms of schizophrenia. Reversal of these behaviors is used to predict potential antipsychotic activity of drugs in pre-clinical studies.
In humans, phencyclidine (PCP) is known to produce a syndrome of behavioral effects which have many characteristics in common with schizophrenia. Therefore, antagonism of PCP effects might be evidence for antipsychotic efficacy of a compound.
Male NMRI mice (5-week old, Janvier, France) or C57BL/6J mice (6-week old, Janvier, France) were group housed and allowed ad-libitum access to food and water. A 12 hour light/dark cycle was imposed with lights-on period between 0530 and 1730 hours. All testing occurred between 700 and 1300 hours. All procedures were approved by Abbott Institutional Animal Care and Use Committee (USA) or Animal Welfare Officer (Germany) and were conducted in accordance with the National Institutes of Health Guide for Care and Use of Laboratory Animals guidelines and applicable national laws in the facilities accredited by the Association for the Assessment and Accreditation of Laboratory Animal Care.
On the day of experiment, animals were brought from the animal facility into the experimental room and were allowed to acclimatize for at least 30 minutes. Animals were then placed in the test cages for a habituation period of 60 minutes. The animals were then injected ip with the test compound and returned to the test cage. 30 Minutes later the mice were injected with d-amphetamine (2.0 mg/kg, AMP, Sigma, #A5880, sc) or phencyclidine (2.0 mg/kg, PCP, Sigma, #P3029, sc) Sigma, and returned to the test cages for 90 minutes. Each treatment group consisted of 8-10 animals. The data was acquired by Cage rack Photobeam system (SDI, San Diego Instruments, CA). The analyzed data were: fine movements, ambulations and total movements (fine+ambulations). Data was subjected to one- or two-way distribution-free ANOVA followed by Dunnett's and Tukey's post hoc tests.

5HT2B receptors = biological target: T3, 5HT2B receptors (Homo sapiens, UniProt P41595); assay: Human 5-HT2B functional high throughput screening assay in CHO-K1 cells (calcium flux); assay type: cell-based; conditions: for pEC50: CHO-K1 cells, calcium flux
T3 construct: expressed in transfected cells; host or cells: CHO-K1 cells
T3 sequence (P41595 whole entry): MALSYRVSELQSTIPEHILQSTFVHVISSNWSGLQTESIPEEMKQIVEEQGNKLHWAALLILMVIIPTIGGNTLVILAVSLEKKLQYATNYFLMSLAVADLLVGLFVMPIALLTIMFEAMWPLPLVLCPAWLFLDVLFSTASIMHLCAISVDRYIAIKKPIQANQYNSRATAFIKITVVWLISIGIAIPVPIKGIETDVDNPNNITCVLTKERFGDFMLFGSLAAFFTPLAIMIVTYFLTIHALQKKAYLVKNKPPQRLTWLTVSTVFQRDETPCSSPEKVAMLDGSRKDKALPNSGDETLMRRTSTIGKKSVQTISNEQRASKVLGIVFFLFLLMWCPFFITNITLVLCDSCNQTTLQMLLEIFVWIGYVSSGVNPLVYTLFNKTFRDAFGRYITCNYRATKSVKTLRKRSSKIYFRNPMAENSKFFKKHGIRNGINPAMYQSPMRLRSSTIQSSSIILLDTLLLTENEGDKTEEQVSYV
Outline: as §1

[5] = test system: conditioned avoidance response (CAR) behavior; assay: Conditioned avoidance responding in rats; assay type: in vivo, rat; conditions: male Wistar rats
Description: The fact that antipsychotics have the unique ability to selectively suppress CAR behavior, made the CAR test a useful tool for the screening of new, potentially antipsychotic compounds. […] Animals Male Wistar rats (9-11 weeks old, Charles River, Germany) were pair-housed and allowed ad-libitum access to food and water. A 12-hour light/dark cycle was imposed with lights-on period between 0530 and 1730 hours. All testing occurred between 700 and 1300 hours. All procedures were approved by Abbott Institutional Animal Care and Use Committee (USA) or Animal Welfare Officer (Germany) and were conducted in accordance with the National Institutes of Health Guide for Care and Use of Laboratory Animals guidelines and applicable national laws in the facilities accredited by the Association for the Assessment and Accreditation of Laboratory Animal Care. Methods Wistar rats are exposed to a conditioned stimulus CS (a 2.9-kHz tone of 10 second duration), which is a signal for the animal that it must move into the other chamber in order to avoid an immediately ensuing footshock US (0.5 mA, 10 second, tone continues during shock presentation). Once the shock has begun, the animal can still escape it by moving to the other chamber. Each session is limited to a maximum of 40 trials (intertrial interval 10-90 seconds). The animals generally learn quickly to change chambers upon the conditioned stimulus and thus avoid further shocks. Scored are: • Avoided responses=crossings into other compartment within 10 seconds of tone presentation; • Escaped responses=crossings between 10-20 seconds of tone presentation; • Failures=crossings after cessation of tone-shock presentation or no crossing. […] At the test sessions (=CS-shock pairings), animals are pre-treated with a test drug or vehicle 30 minutes before commencement of the session.

5-HT6 receptor = biological target: T4, 5-HT6 receptor (Homo sapiens, UniProt P50406); assay: Human 5-HT6 receptor radioligand binding assay (transfected CHO cells, [3H]LSD); conditions: transfected CHO cell membranes, 2 nM [3H]LSD
T4 construct: expressed in transfected cells; host or cells: CHO cells (membrane homogenates)
T4 sequence (P50406 whole entry): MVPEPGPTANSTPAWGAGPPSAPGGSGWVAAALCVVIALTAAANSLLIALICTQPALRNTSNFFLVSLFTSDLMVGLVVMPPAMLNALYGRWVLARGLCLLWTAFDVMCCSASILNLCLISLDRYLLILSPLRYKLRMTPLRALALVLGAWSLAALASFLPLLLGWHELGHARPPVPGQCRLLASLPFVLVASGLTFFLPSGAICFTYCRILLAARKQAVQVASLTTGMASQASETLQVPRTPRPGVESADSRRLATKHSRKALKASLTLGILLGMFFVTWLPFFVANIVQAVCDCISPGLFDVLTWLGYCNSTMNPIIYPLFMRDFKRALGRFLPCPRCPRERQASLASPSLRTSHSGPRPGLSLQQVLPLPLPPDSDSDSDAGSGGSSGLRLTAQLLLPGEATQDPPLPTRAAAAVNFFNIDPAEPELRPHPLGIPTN
Description: (vi) Human 5-HT6 Receptor Radioligand Binding Assay
Affinity of compounds for the agonist site of the 5-HT6 receptor in transfected CHO cells was determined in a radioligand binding assay essentially as described by Monsma, F. J., et al., Mol. Pharmacol. (1993) 43, 320-327. […] Nonspecific binding was determined in the presence of 100 μM serotonin. The amount of binding was determined by radioactivity quantitation with scintillation counter. IC50s were determined from a standard curve of the reference compound serotonin. Ki's as shown in Table 7 were derived from the IC50s in the standard method.

h-5-HT6 receptor = biological target: T5, h-5-HT6 receptor (Homo sapiens, UniProt P50406); assay: Human 5-HT6 receptor radioligand binding assay (HEK293 membranes, [3H]-LSD); conditions: HEK293 membranes expressing h-5-HT6 receptor, 1 nM [3H]-LSD; geometrical mean; read-out: Ki (5-HT6 Agonist Site Radioligand Binding)
T5 construct: expressed in transfected cells; host or cells: HEK293 cells (membranes)
T5 sequence (P50406 whole entry): as above

5HT2C receptors [6] = biological target: T1, 5HT2C receptors; assay: Human 5-HT2C functional assay in CHO-K1 cells (96-well, calcium, FLIPR); assay type: cell-based; design: expressed in transfected cells; conditions: 5-HT2c agonist activity, CHO-K1 cells stably transfected
Description: (iv) Human 5-HT2C Functional Assay in CHO-K1 Cells
Functional activity was determined by testing the effect of the compounds on intracellular calcium levels in CHO-K1 cells stably transfected with the human 5-HT2C receptor. Cells were seeded into 96-well plates at 60,000 cells/well and grown overnight in tissue culture medium (UltraCHO™ (Lonza), containing 1% dFCS, 250 μg/mL Zeocin, 400 μg/mL Geneticin) at 37° C. and 5% CO2. Growth medium was replaced by medium without dFCS for overnight incubation. Cells were loaded with a fluorescent calcium-sensitive dye in the presence of probenicid according to the manufacturer's protocol (FLIPR Ca4 Assay kit, Molecular Devices). Serial compound dilutions (final concentrations 10^−10 to 10^−5 M) were added to the cells and the maximum calcium response was determined using a FLIPR instrument (Molecular Devices). Concentration-response curves were fitted using a four-parameter logistic equation (GraphPad Prism). The concentration at which the compound exerts half its maximal effect is named the ‘effective concentration 50’ or ‘EC50’ and is listed in Table 5.

| SMILES | pKi [2] | pEC50 (5HT2C receptors [3]) | pKi (5-HT6 receptor) | also measured |
| --- | --- | --- | --- | --- |
| O=C1NC[C@H]2CNC[C@@H]2c2ccccc21 [Example 44, (3aR,10bS)-1,2,3,3a,4,5-Hexahydrobenzo[c]pyrrolo[3,4-e]azepin-6(10bH)-one] | 8.02 | 8.52 |  | Emax (5HT2C receptors [1]): 100%; pEC50 (5HT2C receptors [1]; EC50, 5-HT2C agonist activity): 9.00; spontaneous activity ([4]; after ip test compound, before psychostimulant): without affecting spontaneous activity; PCP-induced hyperactivity ([4]; test compound ip 30 min before PCP 2.0 mg/kg sc): attenuated PCP-induced hyperactivity in mice significantly and in a dose dependent manner; also recorded: attenuating the affect of phencyclidine (PCP); Emax (5HT2B receptors; CHO-K1): 100%; pEC50 (5HT2B receptors; EC50, 5-HT2B agonist activity): 6.30 |
| COc1ccc(-c2ccc3c(c2)C(=O)NC[C@H]2CN(C)C[C@H]32)cc1 [Example 158, (3aS,10bS)-8-(4-Methoxyphenyl)-2-methyl-1,2,3,3a,4,5-hexahydrobenzo[e]pyrrolo[3,4-c]azepin-6(10bH)-one] |  |  |  | pEC50 (5HT2C receptors [1]; 5-HT2C agonist activity, read-out: EC50): 9.22; Emax (5HT2C receptors [1]; read-out: Emax): > 120%; conditioned avoidance behavior (avoided responses) ([5]; acute, 30 minutes before session): significantly suppressed conditioned avoidance behavior; number of failures ([5]; indicator of sedation or extrapyramidal side effects): without affecting the number of failures; AMP-induced hyperactivity ([4]; test compound ip 30 min before d-amphetamine 2.0 mg/kg sc): attenuated AMP-induced hyperactivity in mice significantly and in a dose dependent manner; also recorded: attenuating the affect of d-amphetamine (AMP); pEC50 (5HT2B receptors; 5-HT2B agonist activity, read-out: EC50): < 5.00; Emax (5HT2B receptors; 5-HT2B, maximum functional response as percentage relative to the effect of serotonin): inactive |
| O=C1NCc2ccccc2[C@@H]2CN(S(=O)(=O)c3cccc(Cl)c3Cl)C[C@@H]12 (relative stereo) [Example 39, Trans-2-(2,3-dichlorophenylsulfonyl)-1,2,3,3a,5,6-hexahydrobenzo[c]pyrrolo[3,4-e]azepin-4(10bH)-one] |  |  | 6.56 | pKi (h-5-HT6 receptor): 6.68 |
| O=S(=O)(c1ccc(F)c(Cl)c1)N1Cc2ccccc2[C@@H]2CN(Cc3ccccc3)C[C@H]2C1 (relative stereo) [Example 14, Trans-2-benzyl-5-(3-chloro-4-fluorophenylsulfonyl)-1,2,3,3a,4,5,6,10b-octahydrobenzo[c]pyrrolo[3,4-e]azepine] | 6.23 | < 5.00 | 6.60 |  |
| O=S(=O)(c1cccc(Cl)c1)N1Cc2ccccc2[C@@H]2CN(Cc3ccccc3)C[C@H]2C1 (relative stereo) [Example 20, Trans-2-benzyl-5-(3-chlorophenylsulfonyl)-1,2,3,3a,4,5,6,10b-octahydrobenzo[c]pyrrolo[3,4-e]azepine] | 6.59 | < 5.00 | 7.37 |  |
| O=S(=O)(c1cccc(Br)c1)N1Cc2ccccc2[C@@H]2CN(Cc3ccccc3)C[C@H]2C1 (relative stereo) [Example 12, Trans-2-benzyl-5-(3-bromophenylsulfonyl)-1,2,3,3a,4,5,6,10b-octahydrobenzo[c]pyrrolo[3,4-e]azepine] | 6.49 | < 5.00 | 7.24 |  |
| O=S(=O)(c1cccc(F)c1)N1Cc2ccccc2[C@@H]2CN(Cc3ccccc3)C[C@H]2C1 (relative stereo) [Example 8, Trans-2-benzyl-5-(3-fluorophenylsulfonyl)-1,2,3,3a,4,5,6,10b-octahydrobenzo[c]pyrrolo[3,4-e]azepine] | 7.03 |  | 7.55 | pEC50 (5HT2C receptors [6]): < 6.00; pKi (h-5-HT6 receptor): 7.39 |
| O=S(=O)(c1cccc(C(F)(F)F)c1)N1Cc2ccccc2[C@@H]2CN(Cc3ccccc3)C[C@H]2C1 (relative stereo) [Example 16, Trans-2-benzyl-5-(3-(trifluoromethyl)phenylsulfonyl)-1,2,3,3a,4,5,6,10b-octahydrobenzo[c]pyrrolo[3,4-e]azepine] | 6.25 | < 5.00 | 6.85 |  |
